Source: publication PMC9768754, “Enriching Chemical Space of Bioactive Scaffolds by New Ring Systems: Benzazocines and Their Metal Complexes as Potential Anticancer Drugs” (Inorganic Chemistry, 2022)
Like-named read-outs stand apart in the source and are kept apart here.

Key:
HCT116 = test: MTT cytotoxicity assay, monolayer culture; assay type: cell-based, human; settings: 72 h continuous drug action, 2D monolayer, read-out: IC50 (μM) ± S.D. HCT116
Description: (§1) The cytotoxicity of metal-free indolobenzazocines HL^1–HL^5 and their metal complexes 1a, 1b, and 2–5 was investigated by the colorimetric MTT assay in a panel of four human cancer cell lines, namely, human colon carcinoma HCT116 and LS-174, breast adenocarcinoma MDA-MB-361, and lung adenocarcinoma A549, as well as in human non-malignant cell line MRC-5 maintained as monolayer culture. Cisplatin or cis-diamminedichloridoplatinum(II) (CDDP), a well-known chemotherapeutic agent, was used as a positive control. The results obtained after 72 h of continuous drug action are presented as IC50 values (μM) in Table 1.
(§2) Human tumor cell lines derived from human colorectal carcinoma, LS-174 and HCT116, human breast adenocarcinoma, MDA-MB-361, human lung adenocarcinoma, A549, and non-tumor human fetal lung fibroblast cell line, MRC-5, were maintained as a monolayer culture in the Roswell Park Memorial Institute (RPMI) 1640 nutrient medium (Sigma Chemicals Co, USA). RPMI 1640 medium was prepared in sterile ionized water, supplemented with penicillin (100 IU/mL), streptomycin (200 μg/mL), 4-(2-hydroxyethyl) piperazine-1-ethanesulfonic acid (HEPES) (25 mM), L-glutamine (3 mM), and 10% of heat-inactivated fetal calf serum (FCS) (pH = 7.2). The cells were grown at 37 °C in a humidified atmosphere containing 5% CO2.
(§3) Cells were seeded into 96-well culture plates (Thermo Scientific Nunc) at cell densities of 5000 cells per well (HCT116, A549, and MRC-5) and 8000 cells/well (LS-174 and MDA-MB-361) in 100 μL of cell culture medium and left overnight. Eleven tested compounds were dissolved in DMSO to the stock concentration of 20 mM immediately before the experiment, whereas further dilutions were made in the culture medium so that the final concentration of DMSO never exceeded 1% (v/v). Cisplatin (cis-diamminedichloridoplatinum(II), CDDP) was used as a reference compound. After 72 h of continuous incubation, MTT solution (3-(4.5-dimethylthiazol-2-yl)-2.5-diphenyltetrazolium bromide, Sigma-Aldrich) was added to each well (5 mg/mL).[63] The culture plates were incubated at 37 °C for the next 4 h, and finally, 10% sodium dodecyl sulfate (SDS) was added to dissolve formed formazan crystals. Absorbances were measured after 24 h on a microplate reader (Thermo Labsystems Multiscan EX 200–240 V) at a wavelength of 570 nm.

LS-174 = test: MTT cytotoxicity assay, monolayer culture; assay type: cell-based, human; settings: 2D monolayer, read-out: IC50 (μM) ± S.D. LS-174
Description: as §1, §2, §3

MRC-5 = test: MTT cytotoxicity assay, monolayer culture; assay type: cell-based, human; settings: non-malignant cell line, read-out: IC50 (μM) ± S.D. MRC-5
Description: as §1, §2, §3

MDA-MB-361 = test: MTT cytotoxicity assay, monolayer culture; assay type: cell-based, human; settings: 72 h continuous drug action, 2D monolayer, read-out: IC50 (μM) ± S.D. MDA-MB-361
Description: as §1, §2, §3

A549 = test: MTT cytotoxicity assay, monolayer culture; assay type: cell-based, human; settings: 2D monolayer, read-out: IC50 (μM) ± S.D. A549
Description: as §1, §2, §3

LS-174 MCTS = test: MTT assay in 3D multicellular tumor spheroid (MCTS) model; assay type: cell-based, human; settings: 3D MCTS, 72 h continuous drug action, read-out: IC50 (μM) ± S.D. LS-174, 3D cell culture model
Description: (§4) Due to the complex tissue environment, 3D multicellular tumor spheroid (MCTS) models mimic the in vivo architecture closer than 2D cell cultures, thereby allowing more precise prediction of effectiveness of organic drug candidates as well as metal-based ones in animal models.[41]−[44] The efficacy of HL^5, 5, and cisplatin in the 3D MCTS model was investigated in two human colorectal cancer cell lines (CRC) LS-174 and HCT116. We used ultra-low attachment (ULA) plates for the growth of spheroids. Spheroids were incubated for 72 h and then photographed, and IC50 values were determined using MTT assay. Tumor spheroids of diameter >500 μm selected for treatment reflect to a certain extent the tumor complexity as they are composed of several specialized areas and layers where cells show different phenotypic, functional, and metabolic behaviors.[45] They display an organized architecture with an external layer composed of proliferating cells, an intermediate zone composed of quiescent and senescent cells, and an inner apoptotic and necrotic core which is the result of the reduced distribution of nutrients and oxygen in these areas.[46],[47]
(§5) The MCTSs as 3D cell culture models were established by seeding cells at optimized densities between 500 and 1500 cells/well in the ultra-low attachment (ULA) U96-well plate Thermo Scientific Nunclon Sphera in their respective culture media.[34] […]

HCT116 MCTS = test: as above; assay type: cell-based, human; settings: 3D MCTS, 72 h continuous drug action, read-out: IC50 (μM) ± S.D. HCT116, 3D cell culture model
Description: as §4, §5

HCT116 cells = test: Annexin V-FITC/PI apoptosis assay by flow cytometry; assay type: cell-based, human; settings: HCT116, 48 h, 3× IC50; non-treated control 2.29%
Description: The obtained experimental data are presented in Figure 4 as percentages of early apoptotic cells (Annexin V-positive/PI-negative staining), late apoptotic and necrotic cells (Annexin V-positive/PI-positive staining), and dead cells (Annexin V-negative/PI-positive staining). By the current test (BD Pharmingen protocol)[39] for the cells which are already dead (Annexin V-negative/PI-positive staining), we cannot distinguish between types of the occurred cell death.
Quantitative analysis of apoptotic and necrotic cell death induced by the investigated complexes and CDDP was performed by Annexin V-FITC/PI assay. 2 × 10^5 HCT116 or 3 × 10^5 LS-174 cells were seeded into six-well plates (Thermo Scientific Nunc), and after 24 h of growth, cells were treated with tested compounds or CDDP. Following the 24 h and 48 h incubation time, cells were harvested and resuspended in 200 μL 1 × Binding Buffer (10 mM HEPES/NaOH pH 7.4, 140 mM NaCl, 2.5 mM CaCl2). 100 μL of the cell suspension (∼1 × 10^5 cells) was transferred to a 5 mL round-bottom polystyrene tube (Falcon, Corning) and mixed with 5 μL of both FITC Annexin V (BD Pharmingen[39]) and PI (50 μg/mL in PBS).[65] […] Samples were analyzed using an FACS BD Calibur flow cytometer (Becton–Dickinson, Heidelberg Germany) and Cell Quest computer software.

[1] = Stability in aqueous solution containing 1% DMSO by UV-vis spectroscopy; assay type: physicochemical; settings: over 48 h
Procedure: The stability of ligands HL^2 and HL^3 in aqueous solution containing 1% DMSO over 24 and 48 h was monitored by UV–vis spectroscopy (Figure S30 in the Supporting Information). Similarly, the behavior of complexes 1a and 1b as well as 2 and 3 was investigated in aqueous solutions containing 1% DMSO over 12 and 48 h by optical spectroscopy (Figures S31 and S32). […] High thermodynamic and kinetic stability of five-coordinate complexes reported herein can presumably be explained in terms of hard and soft acids and bases theory. Cu^2+ as a borderline metal ion is expected to bind to a soft base, for example, S atom instead of terminal N atom, as is the case for thiosemicarbazides. However, the hard–soft character of the metal ion might be altered by the other ligands attached due to symbiotic effects.[30] This might be the case herein, where bonding of copper(II) to four hard base ligands, namely, to two N atoms (N7 and N15 in Figure 1) and two Cl^– co-ligands, as well as to one borderline base N(pyridine) atom, can reduce the softness of Cu^2+, leading to increased stability of the complexes.

[2] = Solubility in water/1% DMSO; assay type: physicochemical

SMILES	IC50 (HCT116)	IC50 (LS-174; 72 h continuous drug action)	IC50 (MRC-5; 72 h continuous drug action)	IC50 (MDA-MB-361)	IC50 (A549; 72 h continuous drug action)	IC50 (LS-174 MCTS)	IC50 (HCT116 MCTS)	early apoptotic cells (Annexin V-positive/PI-negative) (HCT116 cells)	stability by UV-vis absorption spectra [1]	IC50 (LS-174; Homo sapiens, LS174, 72 h continuous drug action)	IC50 (MRC-5; Homo sapiens, MRC5, 72 h continuous drug action)	IC50 (A549; Homo sapiens, A549, 72 h continuous drug action)	Solubility in water/1% DMSO [2]
N.N.[Cl][Pt][Cl] [CDDP, cis-diamminedichloridoplatinum(II), reference compound]	13.6 ± 1.1 µM	19 ± 0.5 µM	8 ± 1.1 µM	26.4 ± 3.7 µM	17.4 ± 3.5 µM	17.8 ± 1.2 µM	19.6 ± 2.2 µM	19.14%					
Cc1ccc(C(C)C)cc1.O=C1NCCc2ccccc2-c2[nH]c3ccc([N+]4=Cc5cccc[n+]5[Ru-]4[Cl])cc3c21.[Cl-] [1a]	32.9 ± 7.1 µM	> 200 µM	89.8 ± 2.1 µM	91.2 ± 3.5 µM	160 ± 18.2 µM				remained intact				
O=C1NCCc2ccccc2-c2[nH]c3ccc(/N=C/c4ccccn4)cc3c21 [HL^1]										191 ± 5.8 µM	168 ± 15.8 µM	> 200 µM	
Cc1ccc(C(C)C)cc1.O=C1NCCc2ccccc2-c2[nH]c3ccc([N+]4=Cc5cccc[n+]5[Os-]4[Cl])cc3c21.[Cl-] [1b]	40.2 ± 6.7 µM	182 ± 2.1 µM	84.8 ± 6.6 µM	71.9 ± 2.6 µM	91 ± 9.3 µM				remained intact				≥ 1.0 mg mL^–1
